For one series, the system named is BALB/c mice. Put plainly: Mouse full-thickness skin wound healing. In kind it is in vivo. Particulars: for wound area: 20 μL daily on wound, relative to day 1, mean ± SEM, n = 7. How it is done:
Mice were anaesthetised with sodium pentobarbital 2 % by intraperitoneal injection (0.1 mL/20 g mouse body weight), and after anaesthesia, hair was removed from the back using depilatory cream and power scissors, and circular full-thickness skin wounds of the same diameter were marked and created on the back of each mouse using circular stamps and red sealant. The mouse wounds were then covered and infiltrated daily with 20 μL of different concentrations of SC17-2 or 20 ng/mL VEGF, and an equal volume of saline was used in the control group. The mice were anaesthetised by isoflurane nebulisation (concentration 2 %) every two days and then placed under an optical camera to photograph the effect of the wound area.
(§1) Sodium pentobarbital (2 %) was utilised for the anaesthetisation of mice by intraperitoneal injection (0.1 mL/20 g of mouse body weight). Subsequent to the induction of anaesthesia, the dorsal hair was removed using depilatory creams and electric scissors. Thereafter, circular full skin wounds of the same diameter were marked and created on the back of each mouse using circular stamps and red stencils. Mouse wounds were then covered and infiltrated daily with 20 μL of different concentrations of SC17-2 or 20 ng/mL of VEGF, and an equal volume of saline was used in the control group. Mice were anaesthetised every two days using isoflurane nebulisation followed by anaesthesia (concentration 2 %), after which they were placed under an optical camera to photograph the effect of wound area. After 13 days of treatment, mice were anaesthetised using isoflurane nebulisation followed by injection of an overdose of sodium pentobarbital to euthanise the mice (200 mg/kg). The wounds and their surrounding tissues were then excised for histopathological evaluation (Masson and H&E staining) and analysed by Enface immunofluorescence staining.

A further series relates to TGF-α mRNA. Description: qPCR TGF-α mRNA in HaCaT. Particulars: SC17-2 20 μg/mL, n = 6. The class given is cell-based, Human. How it is done: (§2) HaCaT cells were treated as above, washed twice with PBS and lysed using Trizol for 5 min, after which 200 μL of chloroform was added and shaken vigorously for 30 s. The cells were centrifuged for 15 min to separate the upper and lower layers (12,500 g, 4 °C). The supernatant was vortexed with an equal amount of isopropanol and left to stand for 10 min, and then centrifuged again under the same conditions to retain only the white precipitate. 500 μL of 75 % ethanol was added and centrifuged (12000 rpm, 4 °C, 10 min) and the operation was repeated twice. Afterwards, DEPC was used for dissolution and the concentration was determined by nanodrop. One-step reverse transcription to DNA was performed using 5 × MIX, after which primers and 2 × MIX were added and placed. qPCR was performed (LightCycler96, F. Hoffmann-La Roche, Swiss).

Another series concerns EGF mRNA. Put plainly: qPCR EGF mRNA in HaCaT. The class given is cell-based, Human. Particulars: SC17-2 20 μg/mL, n = 6. How it is done:
as §2

In the next series the test system is TGF-β. Put plainly: Western blot TGF-β in HaCaT. The class given is cell-based, Human. Particulars: SC17-2 20 μg/mL, 24 h (16 h elsewhere in the source), n = 3. As for the experimental part:
(§3) HaCaT was inoculated in 12-well plates (2 × 10^5 cells/well) and cultured for 24 h. Afterwards, HaCaT cells were treated with equal amounts of VEGF, SC17-2, and PBS for 16 h. Cells were washed with PBS, after which the samples were collected and added to 1 mL of RIPA lysate containing protease inhibitors and phosphatase inhibitors and placed on ice for 30 min. Allowed to be after sufficient lysis, the supernatant was centrifuged and collected to determine the protein concentration using a nanodrop, followed by the addition of SDS sampling buffer and heating at 95 °C for 10 min. Samples were loaded and run on a gel block based on the determined sample concentration, and then electrotransferred onto a 0.45 μm PVDF membrane. […] After washing three times with TBST, proteins were visualised and scanned by enhanced chemiluminescence using the ChemiDoc XRS imaging system (Bio-Rad, Hercules, CA, USA).
A general note: In western blotting, separated proteins are transferred to a membrane and probed.

The test system of another series is p-ERK/ERK. Description: Western blot p-ERK/ERK in HaCaT. The settings on record: SC17-2 20 μg/mL, 24 h (16 h elsewhere in the source), n = 3. The class given is cell-based, Human. How it is done:
as §3

For series [1], the system named is HaCaT cells. Put plainly: In vitro scratch wound healing (migration) assay, HaCaT. Particulars: SC17-2 concentrations exceeding 10 μg/mL, 16 h. In kind it is cell-based, Human.
Series [2] is described as follows: Circular dichroism spectroscopy. The class given is physicochemical. (Circular dichroism is widely used to follow secondary structure.)
Another series concerns (p-Smad2/3)/(Smad2/3). Description: Western blot p-Smad2/3 / Smad2/3 in HaCaT. The class given is cell-based, Human. Particulars: SC17-2 20 μg/mL, 24 h (16 h elsewhere in the source), n = 3. As for the experimental part: as §3
For another series, the system named is wound tissue. Put plainly: H&E staining of mouse wound sections. In kind it is in vivo. How it is done: as §1
Series [3] can be described thus: Antioxidant activity (stated, no separate method). Particulars: no separate method or value printed.
For series [4], the system named is HaCaT cells. Description: In vitro UVB damage repair (CCK-8). In kind it is cell-based, Human. As for the experimental part: HaCaT cells were inoculated in 24-well plates at 1 × 10^4 cells/well and incubated for 24 h to ensure uniformity and number of cells per well. Prior to UVB irradiation, cells were washed with phosphate buffer solution (PBS) and covered with 300 μL of PBS. The blank control group was wrapped through tinfoil to eliminate the effects caused by UVB irradiation and subsequently irradiated through […]. Immediately after irradiation, PBS was replaced with DMEM/F12 medium and 20 and 5 μg/mL of peptides SC17-2 were added, respectively, and incubated for 24 h. After that, 10 μL of CCK-8 was added to each well, and incubated for 2 h. The absorbance values of each well were measured at 450 nm.

[5] abbreviates: increase in concentration of SC17-2.

For the sequence “SFMPLSIPIMCKMLSKC [SC17-2, peptide of the pleskein family from the skin transcriptome of the frog Nanorana parkeri, made by solid-phase synthesis]”, the “reduction of wound area vs control, significance” value in the series with BALB/c mice (SC17-2 20 μg/mL, at times other than day 9) was “significantly promote the reduction of wound area”. Moreover, the “reduction of wound area vs control on day 9” value with BALB/c mice (SC17-2 20 μg/mL, day 9) was “non-significant difference”. The “final reduction in wound area, dose dependence” value with BALB/c mice (after 13 days of treatment) was “metrologically dependent on SC17-2”. For the same sequence, the wound area in the series with BALB/c mice (day 3, SC17-2 20 μg/mL) stood at 77.84 ± 3.34%; in the series on BALB/c mice (day 5, SC17-2 20 μg/mL), 54.43 ± 2.53%; in the series with BALB/c mice (day 13, SC17-2 20 μg/mL), 2.65 ± 0.72%. Also, in the series on BALB/c mice (day 13, SC17-2 20 μg/mL vs VEGF), the “wound area compared with VEGF” value is listed as “significantly smaller”. The “wound area reduction, ratio to saline-treated control” value with BALB/c mice (days 3 and 5, SC17-2 20 μg/mL) is reported as about 1.3 fold. The “mRNA expression of TGF-α” value in the series on TGF-α mRNA was “significantly elevated”. Also, in the series on EGF mRNA, the “mRNA expression of EGF” value was “significantly elevated”. For the same sequence, the “expression of TGF-β” value in the series with TGF-β is on record as “significantly increase the expression of TGF-β”. Besides, the ERK phosphorylation result in the series on p-ERK/ERK is reported as “significantly increased ERK phosphorylation”. For the same sequence, the HaCaT migration result with HaCaT cells [1] is “notable enhancement”. The secondary structure composition entry in [2] (0 mM (H2O) and 60 mM SDS) was “primarily of random coil and β-sheet structures, with only trace amounts of γ-turn and α-helix structures”. Further, the “secondary structure, change with SDS” value in [2] (0 mM (H2O) vs 60 mM SDS) is given as “remained largely unchanged”. In the series with (p-Smad2/3)/(Smad2/3), the Smad2/3 phosphorylation entry is “significantly increased Smad2/3 phosphorylation”. Besides, in the series on wound tissue (day 13, SC17-2 no less than 10 μg/mL), the “inflammatory cell infiltration in wound tissue” value is given as “significantly reduced the degree of inflammatory cell infiltration in the wound tissue”. Moreover, the epithelial tissue thickness result in the series with wound tissue (setting [5]) is “notable thickening of epithelial tissue”. For the same sequence, the granulation tissue formation result with wound tissue (setting [5]) is “enhanced granulation tissue formation”. Further, the antioxidant activity entry in series [3] was “demonstrated antioxidant activity”. The “UVB damage repair compared with non-irradiated group” value in the series on HaCaT cells [4] (SC17-2 20 μg/mL vs group not irradiated) is “considerably less pronounced”. The “attenuation of UVB-induced damage” value with HaCaT cells [4] (SC17-2 20 μg/mL, 24 h after 5 J/cm UVB, CCK-8, vs saline after irradiation) is “capable of effectively removing the damage caused by UVB radiation”. The “attenuation of cell injuries after UVB irradiation” value with HaCaT cells [4] (SC17-2 20 and 5 μg/mL, 24 h, CCK-8, n = 3) is reported as “could attenuate the cell injuries”.
